Test results as given in patent US20140121373A1, “PROCESS FOR PREPARING STABLE POLYMORPHIC FORM OF ERLOTINIB HYDROCHLORIDE” (CADILA HEALTHCARE LIMITED, priority 2011, published 2014).

Assay: Polymorphic stability study of the stable form of Erlotinib hydrochloride (PXRD, DSC, IR on storage)
Assay type: physicochemical
Settings: for DSC / IR / PXRD: should comply with data of stable polymorphic form
Method: (Refrigerator), 25° C.±2° C./60%±5% RH, 30° C.±2° C./65%±5% RH (Real Time) and 40° C.±2° C./75%±5% RH of the stable form of Erlotinib Hydrochloride.
• Powder X-ray Diffraction: X-ray powder diffraction spectrum was observed on a MF 2100 2 KW X-ray Powder diffractometer of make Rigaku having a Copper Kα-radiation at a voltage of 40 kV and 30 mA. Approximately 150 mg sample was gently flattened on a quartz plate without further processing (e.g. Grinding and sieving) and scanned from 4° to 40° at 0.010° sampling width and 4.000° per minute. • IR Spectroscopy: The IR spectra was performed on 8400S of make Shimadzu by using KBr pellet and recorded from 4000 to 400 cm^−1. About 2 mg of sample was triturated with 300 mg of finely powdered and dried potassium bromide. The mixture was carefully grinded, spread uniformly in a suitable die and submitted it in vacuum to a pressure of about 800 MPa […]. From the FTIR spectrum a blank FT-IR spectrum of KBr was subtracted. The blank IR spectrum was recorded prior to the measurement of the samples.
Differential Scanning Calorimetry (DSC): Melting points are determined by means of a DSC thermogram using a Pyris-1 make Perkin Elmer. DSC (Differential Scanning Calorimetry) is the technique of dynamic differential Calorimetry. Using this technique, the melting temperature can be measured by heating the sample until a thermal, i.e. an endothermic or exothermic, reaction is detected by means of ultrasensitive sensors. The DSC cell/sample chamber was purged with 100 ml/min of ultra-high purity nitrogen. The instrument was calibrated with high purity Indium. The sample was placed into an open aluminum DSC pan and measured against an empty reference pan. About 2 mg of sample being placed into the bottom of the pan and lightly tapped down to ensure good contact with the pan. The instrument was programmed to heat at a heating rate of 10° C./min in the temperature range between 50° C. and 300° C. • Microscope: A Lieca Microscope with Linkam Hot stage microscopy (TMS-94) system with polarized light, CCD camera and Linksys 32 data software. • HPLC: High Performance Liquid Chromatography Separation Module with PDA detector, Make Waters, Model No 2695. • KF: Moisture content was analyzed by using Karl Fisher Autotitrator 795 KFT Titrino make Metrohm.

[1] = 5° C. ± 3° C. (Refrigerator), Month 1
[2] = 5° C. ± 3° C. (Refrigerator), Month 2
[3] = 5° C. ± 3° C. (Refrigerator), Month 3
[4] = 5° C. ± 3° C. (Refrigerator), Month 6
[5] = 25° C. ± 2° C./60% ±5% RH, Month 1
[6] = 25° C. ± 2° C./60% ±5% RH, Month 2
[7] = 25° C. ± 2° C./60% ±5% RH, Month 3
[8] = 25° C. ± 2° C./60% ±5% RH, Month 6
[9] = 30° C. ± 2° C./65% ±5% RH (Real Time), Month 1
[10] = 30° C. ± 2° C./65% ±5% RH (Real Time), Month 2
[11] = 30° C. ± 2° C./65% ±5% RH (Real Time), Month 3
[12] = 30° C. ± 2° C./65% ±5% RH (Real Time), Month 6
[13] = 40° C. ± 2° C./75% ±5% RH, Month 1
[14] = 40° C. ± 2° C./75% ±5% RH, Month 2
[15] = 40° C. ± 2° C./75% ±5% RH, Month 3
[16] = 40° C. ± 2° C./75% ±5% RH, Month 6

SMILES: C#Cc1cccc(Nc2ncnc3cc(OCCOC)c(OCCOC)cc23)c1.Cl [Erlotinib hydrochloride, 4-(3-Ethynylphenylamino)-6,7-bis(2-methoxyethoxy)-quinazoline]
- DSC [1]: Complies
- IR [1]: Complies
- PXRD [1]: Complies
- DSC [2]: Complies
- IR [2]: Complies
- PXRD [2]: Complies
- DSC [3]: Complies
- IR [3]: Complies
- PXRD [3]: Complies
- DSC [4]: Complies
- IR [4]: Complies
- PXRD [4]: Complies
- DSC [5]: Complies
- IR [5]: Complies
- PXRD [5]: Complies
- DSC [6]: Complies
- IR [6]: Complies
- PXRD [6]: Complies
- DSC [7]: Complies
- IR [7]: Complies
- PXRD [7]: Complies
- DSC [8]: Complies
- IR [8]: Complies
- PXRD [8]: Complies
- DSC [9]: Complies
- IR [9]: Complies
- PXRD [9]: Complies
- DSC [10]: Complies
- IR [10]: Complies
- PXRD [10]: Complies
- DSC [11]: Complies
- IR [11]: Complies
- PXRD [11]: Complies
- DSC [12]: Complies
- IR [12]: Complies
- PXRD [12]: Complies
- DSC [13]: Complies
- IR [13]: Complies
- PXRD [13]: Complies
- DSC [14]: Complies
- IR [14]: Complies
- PXRD [14]: Complies
- DSC [15]: Complies
- IR [15]: Complies
- PXRD [15]: Complies
- DSC [16]: Complies
- IR [16]: Complies
- PXRD [16]: Complies
- retention of polymorphic and chemical identity on storage (both stability studies, all storage conditions): retained the same polymorphic and chemical identity at least up to six months
